Legend:
[1] = tested on: Buffalopox virus; test: Antiviral activity against Buffalopox virus infected African green monkey Vero cells assessed as reduction of viral titer after 48 hr; type: functional
[2] = tested on: Camelpox virus; test: Antiviral activity against Camelpox virus infected African green monkey Vero cells assessed as reduction of viral titer after 48 hr; type: functional
[3] = Cytotoxicity against Chlorocebus aethiops (African green monkey) Vero cells assessed as maximum non-toxic concentration after 24 hr; type: cell-based; settings: chlorocebus sabaeus, read-out: Activity

For `O=C1/C(=C/c2ccc(F)cc2)CC/C1=C\c1ccc(F)cc1`, the “inhibition (INH)” value [1] was 73.69%, the “inhibition (INH)” value [2] was 54.29% and the MNTC at 24 h [3] was 0.0833 µg/mL.

From ChEMBL document CHEMBL3046409, “Studies on radioprotective and antiviral activities of some bischalcone derivatives” (Med Chem Res, 2012)
